Here are results for three compounds from article PMC10527924 (Toxicology in vitro : an international journal published in …, 2023).

Like-named read-outs stand apart in the source and are kept apart here.

One data set concerns excised human skin (EHS). The conditions noted are these: female, 0.61 nmol/μL.
For data set [1] the following is noted: 0.61 nmol/μL.
The subject of data set [2] is EpiDerm-200-X reconstructed human epidermis (RhE).
The conditions of data set [3]: not measured for this paper; no reference given; cited from earlier work.
The test system of data set [4] is EpiDerm-200-X reconstructed human epidermis (RhE). Description: In vitro permeation testing. The conditions noted are these: 5 mm orifice Franz cell, finite dose 6 nmol/cm^2.

Take `Cn1c(=O)c2c(ncn2C)n(C)c1=O` [caffeine]: the “6 h Cumulative Permeation” value in the data set with excised human skin (EHS) worked out at 0.97 ± 0.22 nmol/cm^2; in data set [1] (6 h), 0.43 ± 0.03 nmol/cm^2; in data set [2] (human, 0.61 nmol/μL), 3.32 ± 0.33 nmol/cm^2. In data set [1], the “time of peak flux” value was 2 h. Moreover, the “vehicle effect on 6 h cumulative permeation” value in data set [2] is listed as “statistically significant decrease”. For the same compound, in data set [2] (human, 0.61 nmol/μL), the “time of mean peak flux” value turned out to be 3 h. Moreover, the “Log Kow (n-octanol-water partition coefficient)” value in data set [3] was −0.07.
In the case of `O=C(O)c1ccccc1O` [salicylic acid], the “6 h Cumulative Permeation” value is given as 0.18 ± 0.10 nmol/cm^2 in the data set with excised human skin (EHS) and 0.32 ± 0.05 nmol/cm^2 in data set [2] (human, 0.61 nmol/μL). Moreover, the “vehicle effect on 6 h cumulative permeation” value in data set [2] is on record as “did not alter its permeation”. In addition, the “Log Kow (n-octanol-water partition coefficient)” value in data set [3] is given as 2.26.
On to `C[C@]12CC[C@H]3[C@@H](CCC4=CC(=O)CC[C@@]43C)[C@@H]1CC[C@@H]2O` [testosterone], for which the “time of mean peak flux” value in data set [4] was 2 h.
